Measurements reported in patent US8679765B2, “Methods and compositions for diagnosis and treatment of malignant and non-malignant gammopathies” (Ludwig Institute for Cancer Research Ltd., priority 2009, dated 2014).

B1: MPMGp800B22602: RZPD clone, NM_006762.1 (protein)
chain: MDPRLSTVRQTCCCFNVRIATTALAIYHVIMSVLLFIEHSVEVAHGKASCKLSQMGYLRIADLISSFLLITMLFIISLSLLIGVVKNREKYLLPFLSLQIMDYLLCLLTLLGSYIELPAYLKLASRSRASSSKFPLMTLQLLDFCLSILTLCSSYMEVPTYLNFKSMNHMNYLPSQEDMPHNQFIKMMIIFSIAFITVLIFKVYMFKCVWRCYRLIKCMNSVEEKRNSKMLQKVVLPSYEEALSLPSKTPEGGPAPPPYSEV
B2: MPMGp800J11592: RZPD clone, NM_001294.1 (protein, UniProt O96005 2-669, looked up)
Putative lipid scramblase …: AAAQEADGARSAVVAAGGGSSGQVTSNGSIGRDPPAETQPQNPPAQPAPNAWQVIKGVLFRIFIIWAISSWFRRGPAPQDQAGPGGAPRVASRNLFPKDTLMNLHVYISEHEHFTDFNATSALFWEQHDLVYGDWTSGENSDGCYEHFAELDIPQSVQQNGSIYIHVYFTKSGFHPDPRQKALYRRLATVHMSRMINKYKRRRFQKTKNLLTGETEADPEMIKRAEDYGPVEVISHWHPNITINIVDDHTPWVKGSVPPPLDQYVKFDAVSGDYYPIIYFNDYWNLQKDYYPINESLASLPLRVSFCPLSLWRWQLYAAQSTKSPWNFLGDELYEQSDEEQDSVKVALLETNPYLLALTIIVSIVHSVFEFLAFKNDIQFWNSRQSLEGLSVRSVFFGVFQSFVVLLYILDNETNFVVQVSVFIGVLIDLWKITKVMDVRLDREHRVAGIFPRLSFKDKSTYIESSTKVYDDMAFRYLSWILFPLLGCYAVYSLLYLEHKGWYSWVLSMLYGFLLTFGFITMTPQLFINYKLKSVAHLPWRMLTYKALNTFIDDLFAFVIKMPVMYRIGCLRDDVVFFIYLYQRWIYRVDPTRVNEFGMSGEDPTAAAPVAEVPTAAGALTPTPAPTTTTATREEASTSLPTKPTQGASSASEPQEAPPKPAEDKKKD

Tests used:
[1] = tested on: hyperphosphorylation of Paratarg; experiment: Inhibition experiments: LCLs cultured with kinase inhibitors, IEF and immunodetection with anti-STOML2; type: cell-based, human; details: IEF analysis; for effect on hyperphosphorylation of paratarg: LCLs of healthy donors or patients
Method: LCLs derived from healthy donors or patients were cultured in the presence of the kinase inhibitors at the indicated concentrations. Lysates were analysed by IEF and immunodetected with anti-STOML2. A shown in this figure, hyperphosphorylation is inhibited by staurosporine, ellagic acid and wortmannin. […] Using BIM_I and Rottlerin, PKC isoform delta or zeta could be identified as responsible for hyperphosphorylation. • a) Same as b), but with other concentrations of the inhibitors.
LCLs were established by infection of PBMCs with EBV as described by Neumann et al (Blood 2005; 106:3105-13).
Stably transfected cell lines were cultured in the presence of inhibitory compounds as indicated. After 5 d cells were removed and analysed by IEF and immunodetection.
In MGUS/MM patients and their relatives hyperphosphorylated paratarg is expressed constitutively, while hyperphosphorylation of paratarg is temporary in all healthy persons and cell lines analysed. This was seen by culturing LCLs and cell lines in the presence of kinase or phosphatase inhibitors. The identification of Ser17 as the differential phosphorylation site led to the prediction of a […] (PKC) responsible for hyperphosphorylation. Culturing of LCLs and cell lines in the presence of suitable inhibitors (staurosporine, Wortmannin, Bisindolylmaleimid I) at concentrations as indicated below and followed by IEF analysis identifies the PKCzeta isoform as the active kinase (summarized in FIG. 16). This was verified by using highly specific PKCzeta pseudosubstrate as inhibitor (FIG. 16d). […] (FIG. 18).

[2] = tested on: paraproteins of serum pool #1 (MGUS/MM patients' sera); experiment: Serum profiling on high density protein arrays (paraprotein screening of hEx1 human fetal brain macroarray); type: binding; parameters: key: Paraprotein-binding quality/strength are ++, + and ±.; Paraprotein-binding quality/strength are ++, + and ±.; Paraprotein-binding quality/strength are ++, + and ±; details: serum pool #1 (n=114), each serum diluted 1:10^8
Method: Screening analyses were performed on hEx1 high-density protein expression cDNA libraries, created in Hans Lehrach's laboratory at the Max Planck Institute for Molecular Genetics in Berlin (Germany) and obtained from the Reference Center of the German Human Genome Project (RZPD) (Bussow et al, 1998). These high-density filter membranes display proteins that were expressed from a modified pQE protein expression vector (Qiagen). This vector featured a hexahistidine tag, a T5 promoter and two lac operator sequences, which allowed repression during the growth phase by overexpression of the Lac repressor protein, and subsequent induction of protein expression with isopropyl-beta-D-thiogalactopyranoside (IPTG).
High density protein arrays of the protein expression set of the hEx1 library were obtained from the German Resource Center for Genome Research (RZPD) and provided by Dr. Mahlknecht from our department. They consist of 37,200 independent clones derived from a human fetal brain cDNA expression library and were used for autoantibody detection. For serum profiling, the filters were blocked in 10% (w/v) non-fat, dry milk powder in TBST (TBS, 0.1% (v/v) Tween 20) at 4° C. overnight, washed twice in TBST, and incubated for 1 h with serum pool #1 at a dilution of 1:10^8 for each serum. Following three 30-min TBST washes and subsequent incubation with the secondary antibody (goat anti-human IgG biotinylated, Dianova, diluted 1:2.500) and Strep-PDX (1:15.000) in 2% (w/v) Milk/TBST, the filters were washed three times for 30 min in TBST. This was followed by detection using Pharmacia ECL system. Positive signals were localized according to the manufacturer's protocol. Corresponding clones were obtained from RZPD.
In this study we screened a human high-density protein array containing 37,200 independent recombinant proteins derived from a human fetal brain expression library with sera obtained from patients with monoclonal gammopathy of undetermined significance (MGUS) and multiple myeloma (MM).
The signal pattern obtained from the screening with the paraprotein pools at a dilution of 1:10^8 were compared with the patterns obtained from screening with the control sera from clinically healthy donors and to background incubations. […] 5′- and 3′-tag sequencing of these clones was performed, and their sequences were used for BLAST searches against public databases at NCBI.
Using serum pool #1 (paraprotein type: 15 IgA, 88 IgG, 11 oligoclonal, n=114) we identified 14 putative paraprotein targets on the human protein filter array (FIG. 1, Tab. 1). […] Sequence searches and comparisons using the in-frame sequences identified five known proteins and one unknown gene product derived from chromosome 8.

Molecule | effect on hyperphosphorylation of paratarg [1] | Signal-quality (paraprotein-binding quality/strength) [2] | other results
O=c1oc2c(O)c(O)cc3c(=O)oc4c(O)c(O)cc1c4c23 [ellagic acid] | inhibited | – | –
CN[C@@H]1C[C@H]2O[C@@](C)([C@@H]1OC)n1c3ccccc3c3c4c(c5c6ccccc6n2c5c31)C(=O)NC4 [staurosporine] | inhibited | – | –
CN(C)CCCn1cc(C2=C(c3c[nH]c4ccccc34)C(=O)NC2=O)c2ccccc21 [BIM_I, Bisindolylmaleimid I] | – | – | kinase identified by inhibition of paratarg hyperphosphorylation ([1]; LCLs, BIM_I at 6 μM): clearly identified PKCzeta as the kinase responsible
B1 | – | ++ | –
B2 | – | ± | –
